# Test results published in US20090246240A1, “DRY BACTERICIDAL NONWOVEN WIPE” (priority 2008, published 2009).
# Read-outs that look alike come from different tables or passages of the source.
# Experiments:
# [1] = tested on: methicillin resistant Staphylococcus aureus (MRSA); experiment: AATCC Test Method 100: Assessment of Antibacterial Finishes on Textile Materials (MRSA); assay type: cell-based
# Description: (§1) A dry bactericidal wipe comprising was formed using 100% 1.5 denier Visocel® rayon fibers 38-mm in length, available from SNIACE of Torrelavega, Cantabria, Spain. A binder composition containing 5% of an acrylic binder, ST 954, available from Rohm and Hass Chemicals LLC of Charlotte, N.C., U.S.A. and 95% water was applied first using foam application at the first application at a level of about 10.6 grams per square yard, heating using steam or oil heated cans for about 45 seconds at a temperature of about 275° Fahrenheit. A second application of the binder/bactericidal composition containing 5% of the ST 954 acrylic binder, 1% tetradecylbenzyldimethyl ammonium chloride, and 94% water was applied by padding at a level of about 1.2 grams per square yard. The web is then heated in the same manner as above. The wipe has thickness of about 11 mils measured according to ASTM D 1777 and a basis weight of 37.8 g/yd^2, measured according to ASTM D 3776. A sample was prepared for bactericidal testing according to AATCC Test Method 100: Assessment of Antibacterial Finishes on Textile Materials.
# (§2) Another aspect of the present invention is the discovery of a new use for a certain bactericidal agent, namely the tetradecylbenzyldimethyl ammonium chloride. As will be appreciated by those skilled in the art, there are various methods to assess the effectiveness of a bactericidal agent. The discovery here is that this particular bactericidal agent provides a greater than 90%, preferably greater than 95%, and more preferably greater than 99% reduction in bacterium, including methicillin resistant Staphylococcus aureus (MRSA or Mursa), Staphylococcus aureus, Klebsiella pneumoniae, or combinations thereof. One method for determining the reduction of such organisms is American Association of Textile Chemists and Colorists (AATCC) Test Method 100, using American Type Culture Collection (ATCC) reference organisms ATCC 33591, methicillin resistant Staphylococcus aureus (MRSA), ATCC 6538, Staphylococcus aureus, and ATCC 4352, Klebsiela pneumoniae. […]
# Staphylococcus aureus = experiment: AATCC Test Method 100: Assessment of Antibacterial Finishes on Textile Materials (Staphylococcus aureus); assay type: cell-based, ATCC 6538
# Description: as §1, §2
# Klebsiella pneumoniae = experiment: AATCC Test Method 100: Assessment of Antibacterial Finishes on Textile Materials (Klebsiella pneumoniae); assay type: cell-based, ATCC 4352
# Description: as §1, §2
# [2] = listed as tetradecyl benzyl dimethyl ammonium chloride
# [3] = listed as tetradecyldimethylbenzyl ammonium chloride
compound,measurement,setting,value
CCCCCCCCCCCCCC[N+](C)(C)Cc1ccccc1.[Cl-] [tetradecylbenzyldimethyl ammonium chloride],reduction in methicillin resistant Staphylococcus aureus (MRSA),[1],greater than 90%
same,reduction in methicillin resistant Staphylococcus aureus (MRSA),[1]; [2],greater than 90%
same,reduction in methicillin resistant Staphylococcus aureus (MRSA),[1]; [3],more than 99%
same,reduction in Staphylococcus aureus bacterium,Staphylococcus aureus,greater than 90%
same,reduction in Staphylococcus aureus bacterium,Staphylococcus aureus; [2],greater than 90%
same,reduction in Staphylococcus aureus bacterium,Staphylococcus aureus; [3],more than 99%
same,reduction in the Klebsiella pneumoniae bacterium,Klebsiella pneumoniae,greater than 90%
same,reduction in the Klebsiella pneumoniae bacterium,Klebsiella pneumoniae; [2],greater than 90%
same,reduction in the Klebsiella pneumoniae bacterium,Klebsiella pneumoniae; [3],more than 99%
